{"source": "patent US20230285387A1", "about": "“COMBINATION OF MORPHINAN COMPOUNDS AND ANTI[…] THE TREATMENT OF PS[…], NEUROLOGICAL DISEASES, I[…] CHRONIC PAIN AND BRAIN INJURY” (Concert Pharmaceuticals, Inc., priority 2008, published 2023)", "key": {"CYP2D6": {"molecular_target": "T1, CYP2D6 (Homo sapiens, UniProt P10635)", "T1 construct": "purchased GenTest (Woburn, Mass., USA)", "T1 sequence (P10635 whole entry)": "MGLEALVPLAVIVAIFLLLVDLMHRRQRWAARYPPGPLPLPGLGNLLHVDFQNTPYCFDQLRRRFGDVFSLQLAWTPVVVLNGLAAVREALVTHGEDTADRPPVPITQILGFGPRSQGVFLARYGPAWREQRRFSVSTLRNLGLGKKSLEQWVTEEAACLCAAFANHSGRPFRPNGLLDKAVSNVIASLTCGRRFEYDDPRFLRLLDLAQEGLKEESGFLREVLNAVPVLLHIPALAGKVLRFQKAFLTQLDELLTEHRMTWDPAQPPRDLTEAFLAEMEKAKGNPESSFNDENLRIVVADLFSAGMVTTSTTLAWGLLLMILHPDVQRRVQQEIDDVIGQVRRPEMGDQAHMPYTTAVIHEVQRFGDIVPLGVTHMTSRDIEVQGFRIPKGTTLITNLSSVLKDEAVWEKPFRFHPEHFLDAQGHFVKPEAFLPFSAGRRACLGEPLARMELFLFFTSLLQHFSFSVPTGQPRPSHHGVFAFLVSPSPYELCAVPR", "assay": "Metabolic stability in CYP2D6 SUPERSOMES", "format": "in vitro ADME", "details": "human, recombinant human CYP2D6 SUPERSOMES; 1 μM test compound, 2 mM NADPH, 0.1 M potassium phosphate buffer pH 7.4, 37° C., 0-30 minutes, parent remaining by LC-MS/MS; read-out: t1/2 ± SD (calculated in vitro half-life in SUPERSOMES)", "procedure": "(§1) Human CYP2D6 SUPERSOMES™ were purchased from GenTest (Woburn, Mass., USA). […] The 7.5 mM stock solutions were diluted to 50 μM in acetonitrile (ACN). The […] CYP2D6 supersomes were diluted to 62.5 μmol/mL in 0.1 M potassium phosphate buffer, pH 7.4, containing 3 mM MgCl2. The diluted SUPERSOMES™ were added to wells of a 96-well deep-well polypropylene plate in triplicate. 10 μL of the 50 μM test compound was added to the supersomes and the mixture was pre-warmed for 10 minutes. Reactions were initiated by addition of pre-warmed NADPH solution. The final reaction volume was 0.5 mL and contained 50 μmol/mL CYP2D6 SUPERSOMES™, 1 μM test compound, and 2 mM NADPH in 0.1 M potassium phosphate buffer, pH 7.4, and 3 mM MgCl2. The reaction mixtures were incubated at 37° C. and 50 μL aliquots were removed at 0, 5, 10, 20, and 30 minutes and added to shallow-well 96-well plates which contained 50 μL of ice-cold ACN with internal standard to stop the reactions. The plates were stored at 4° C. for 20 minutes after which 100 μL of water was added to the wells of the plate before centrifugation to pellet precipitated proteins. Supernatants were transferred to another 96-well plate and analyzed for amounts of parent remaining by LC-MS/MS using an Applied Bio-systems API 4000 mass spectrometer.\n(§2) The in vitro half-life (t1/2) for each of the test compounds was calculated from the slopes of the linear regression of % parent remaining (ln) vs incubation time relationship: in vitro t1/2=0.693/k, where k=−[slope of linear regression of % parent remaining(ln) vs incubation time]. Data analysis was performed using Microsoft Excel Software."}, "Human CYP2D6 SUPERSOMES": {"molecular_target": "T2, Human CYP2D6 SUPERSOMES (Homo sapiens, UniProt P10635)", "T2 construct": "purchased GenTest (Woburn, Mass., USA)", "T2 sequence (P10635 whole entry)": "as above", "assay": "Metabolic stability in CYP2D6 SUPERSOMES", "format": "in vitro ADME", "details": "1 μM test compound, 2 mM NADPH, 0.1 M potassium phosphate buffer pH 7.4, 37° C., 0-30 minutes, parent remaining by LC-MS/MS", "procedure": "as §1, §2"}}, "note": "Where a name gives a salt, the structure may show the parent alone."}
{"smiles": "[2H]C([2H])([2H])C([2H])([2H])Oc1ccc2c(c1)[C@]13CCCC[C@@H]1C(C2)N(C)CC3", "note": "(single isomer, unassigned; (+)) [Compound 104, (+)-3-(Ethoxy-d5)-17-methyl-(9α,13α,14α)-morphinan hydrochloride]", "values": [{"measurement": "half-life at 1 μM", "setting": "CYP2D6", "result": "49.1 ± 4.1", "unit": "min"}]}
{"smiles": "[2H]C([2H])([2H])C([2H])(Oc1ccc2c(c1)[C@]13CCCC[C@@H]1C(C2)N(C)CC3)C([2H])([2H])[2H]", "note": "(single isomer, unassigned; (+)) [Compound 106, (+)-3-(Isopropoxy-d7)-17-methyl-(9α,13α,14α)-morphinan]", "values": [{"measurement": "half-life at 1 μM", "setting": "CYP2D6", "result": "36 ± 2.8", "unit": "min"}]}
{"smiles": "[2H]C([2H])([2H])N1CC[C@@]23CCCC[C@@H]2[C@@H]1Cc1ccc(OC([2H])(C([2H])([2H])[2H])C([2H])([2H])[2H])cc13", "note": "[Compound 102, (+)-3-(Isopropoxy-d7)-17-(methyl-d3)-(9α,13α,14α)-morphinan]", "values": [{"measurement": "t1/2 ± SD (calculated in vitro half-life in SUPERSOMES)", "setting": "Human CYP2D6 SUPERSOMES", "result": "39.0 ± 1.9", "unit": "min"}]}
{"smiles": "[2H]C([2H])([2H])Oc1ccc2c(c1)[C@]13CCCC[C@@H]1[C@H](C2)N(C([2H])([2H])[2H])CC3", "note": "[Test Compound, (+)-3-d3-methoxy-17-d3-methyl-(9α,13α,14α)-morphinan]", "values": [{"measurement": "half-life at 1 μM", "setting": "CYP2D6", "result": "5.6 ± 1.5", "unit": "min"}]}
